{"source": "PubChem BioAssay AID248", "about": "(DTP/NCI, 2004)", "tested_on": "L1210 leukemia ip in BDF1 mice, survival T/C", "experiment": "NCI In Vivo Anticancer Drug Screen. Data for tumor model L1210 Leukemia (intraperitoneal) in B6D2F1 (BDF1) mice", "conditions": "endpoint: mean survival time, higher = longer survival", "how_it_was_run": "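Read-out is survival time, reported as the treated-group measurement over the vehicle-control measurement.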", "key": {"[1]": {"conditions": "dose: 100.0 mg/kg/injection, schedule: Q01DX009 (ip), vehicle: saline"}, "[2]": {"conditions": "dose: 100.0 mg/kg/injection, schedule: Q04DX003 (ip), vehicle: saline"}, "[3]": {"conditions": "dose: 200.0 mg/kg/injection, schedule: Q01DX009 (ip), vehicle: saline"}, "[4]": {"conditions": "dose: 200.0 mg/kg/injection, schedule: Q04DX003 (ip), vehicle: saline"}, "[5]": {"conditions": "dose: 400.0 mg/kg/injection, schedule: Q04DX003 (ip), vehicle: saline"}}, "note": "Values joined by “and” are separate entries in the source; they are usually repeats but may differ in a detail not shown here. Identical values can stand only once. Inconclusive results and toxic doses are left out.", "data": [{"compound": "COc1cc2ccc(C(C)N)cc2cc1OC", "note": "(stereo not given)", "values": [{"measurement": "T/C", "setting": "dose: 50.0 mg/kg/injection, schedule: Q01DX009 (ip), vehicle: saline", "result": "100 % of control"}, {"measurement": "T/C", "setting": "[1]", "result": "105 % of control"}, {"measurement": "T/C", "setting": "[2]", "result": "110 % of control"}, {"measurement": "T/C", "setting": "[3]", "result": "103 % of control"}, {"measurement": "T/C", "setting": "[4]", "result": "117 % of control"}]}, {"compound": "Cc1ccc([N+](=O)[O-])cc1NC(=O)Oc1ccc2c(C)cc(=O)oc2c1", "values": [{"measurement": "T/C", "setting": "dose: 100.0 mg/kg/injection, schedule: Q04DX002 (ip), vehicle: Klucel (hydroxypropylcellulose) (HPC)", "result": "101 % of control"}, {"measurement": "T/C", "setting": "dose: 400.0 mg/kg/injection, schedule: Q04DX002 (ip), vehicle: Klucel (hydroxypropylcellulose) (HPC)", "result": "95 % of control"}]}, {"compound": "CC(C)(C)Sc1cccnc1", "values": [{"measurement": "T/C", "setting": "dose: 100.0 mg/kg/injection, schedule: Q01DX009 (ip), vehicle: saline with Tween-80", "result": "94 % of control"}, {"measurement": "T/C", "setting": "dose: 200.0 mg/kg/injection, schedule: Q01DX009 (ip), vehicle: saline with Tween-80", "result": "98 % of control"}]}, {"compound": "COc1ccc(Cl)cc1NC(=O)Nc1cc(Cl)c(Cl)cc1C", "values": [{"measurement": "T/C", "setting": "dose: 100.0 mg/kg/injection, schedule: Q01DX009 (ip), vehicle: Klucel (hydroxypropylcellulose) (HPC)", "result": "102 % of control"}, {"measurement": "T/C", "setting": "dose: 100.0 mg/kg/injection, schedule: Q04DX003 (ip), vehicle: Klucel (hydroxypropylcellulose) (HPC)", "result": "95 % of control"}, {"measurement": "T/C", "setting": "dose: 200.0 mg/kg/injection, schedule: Q01DX009 (ip), vehicle: Klucel (hydroxypropylcellulose) (HPC)", "result": "100 % of control"}, {"measurement": "T/C", "setting": "dose: 200.0 mg/kg/injection, schedule: Q04DX003 (ip), vehicle: Klucel (hydroxypropylcellulose) (HPC)", "result": "94 % of control"}, {"measurement": "T/C", "setting": "dose: 400.0 mg/kg/injection, schedule: Q01DX009 (ip), vehicle: Klucel (hydroxypropylcellulose) (HPC)", "result": "97 % of control"}, {"measurement": "T/C", "setting": "dose: 400.0 mg/kg/injection, schedule: Q04DX003 (ip), vehicle: Klucel (hydroxypropylcellulose) (HPC)", "result": "94 % of control"}]}, {"compound": "CC(C)C(C(N)=O)N1C(=O)C2C3CCC(C3)C2C1=O", "note": "(stereo not given)", "values": [{"measurement": "T/C", "setting": "[2]", "result": "98 % of control"}, {"measurement": "T/C", "setting": "[4]", "result": "95 % of control"}, {"measurement": "T/C", "setting": "[5]", "result": "107 % of control"}]}, {"compound": "N#CC(=C=[N-])[n+]1ccccc1", "values": [{"measurement": "T/C", "setting": "dose: 6.25 mg/kg/injection, schedule: Q01DX009 (ip), vehicle: saline", "result": "100 % of control"}, {"measurement": "T/C", "setting": "dose: 12.5 mg/kg/injection, schedule: Q01DX009 (ip), vehicle: saline", "result": "100 % of control"}, {"measurement": "T/C", "setting": "dose: 18.8 mg/kg/injection, schedule: Q01DX001 (ip), vehicle: saline", "result": "108 % of control"}, {"measurement": "T/C", "setting": "dose: 37.5 mg/kg/injection, schedule: Q01DX001 (ip), vehicle: saline", "result": "100 % of control"}]}, {"compound": "O=C(O)C1CC2C3CC(C(=O)O)C(C3)C2C1", "note": "(stereo not given)", "values": [{"measurement": "T/C", "setting": "[1]", "result": "96 % of control"}, {"measurement": "T/C", "setting": "[2]", "result": "102 % of control"}, {"measurement": "T/C", "setting": "[3]", "result": "101 % of control"}, {"measurement": "T/C", "setting": "[4]", "result": "100 % of control"}, {"measurement": "T/C", "setting": "dose: 400.0 mg/kg/injection, schedule: Q01DX009 (ip), vehicle: saline", "result": "101 % of control"}, {"measurement": "T/C", "setting": "[5]", "result": "96 % of control"}]}, {"compound": "CC[n+]1ccc(C)c2ccccc21", "values": [{"measurement": "T/C", "setting": "dose: 12.5 mg/kg/injection, schedule: Q04DX002 (ip), vehicle: saline", "result": "102 % of control and 103 % of control"}, {"measurement": "T/C", "setting": "dose: 12.5 mg/kg/injection, schedule: Q04DX003 (ip), vehicle: saline", "result": "103 % of control"}, {"measurement": "T/C", "setting": "dose: 25.0 mg/kg/injection, schedule: Q04DX002 (ip), vehicle: saline", "result": "95 % of control and 98 % of control"}, {"measurement": "T/C", "setting": "dose: 25.0 mg/kg/injection, schedule: Q04DX003 (ip), vehicle: saline", "result": "100 % of control"}, {"measurement": "T/C", "setting": "dose: 50.0 mg/kg/injection, schedule: Q04DX002 (ip), vehicle: saline", "result": "95 % of control and 102 % of control"}, {"measurement": "T/C", "setting": "dose: 50.0 mg/kg/injection, schedule: Q04DX003 (ip), vehicle: saline", "result": "105 % of control"}]}, {"compound": "O=NN(CCF)C(=O)NC1CCC(NC(=O)N(CCF)N=O)CC1", "note": "(stereo not given)", "values": [{"measurement": "T/C", "setting": "dose: 16.0 mg/kg/injection, schedule: Q01DX001 (ip), vehicle: carboxymethylcellulose (CMC)", "result": "151 % of control"}, {"measurement": "T/C", "setting": "dose: 30.0 mg/kg/injection, schedule: Q01DX001 (ip), vehicle: other", "result": "190 % of control"}, {"measurement": "T/C", "setting": "dose: 31.0 mg/kg/injection, schedule: Q01DX001 (ip), vehicle: carboxymethylcellulose (CMC)", "result": "176 % of control"}, {"measurement": "T/C", "setting": "dose: 50.0 mg/kg/injection, schedule: Q01DX001 (ip), vehicle: other", "result": "220 % of control"}, {"measurement": "T/C", "setting": "dose: 60.0 mg/kg/injection, schedule: Q01DX001 (ip), vehicle: other", "result": "294 % of control"}, {"measurement": "T/C", "setting": "dose: 62.0 mg/kg/injection, schedule: Q01DX001 (ip), vehicle: carboxymethylcellulose (CMC)", "result": "336 % of control"}, {"measurement": "T/C", "setting": "dose: 80.0 mg/kg/injection, schedule: Q01DX001 (ip), vehicle: other", "result": "300 % of control"}, {"measurement": "T/C", "setting": "dose: 120.0 mg/kg/injection, schedule: Q01DX001 (ip), vehicle: other", "result": "315 % of control and 340 % of control"}, {"measurement": "T/C", "setting": "dose: 125.0 mg/kg/injection, schedule: Q01DX001 (ip), vehicle: carboxymethylcellulose (CMC)", "result": "357 % of control"}, {"measurement": "T/C", "setting": "dose: 180.0 mg/kg/injection, schedule: Q01DX001 (ip), vehicle: other", "result": "340 % of control"}, {"measurement": "T/C", "setting": "dose: 240.0 mg/kg/injection, schedule: Q01DX001 (ip), vehicle: other", "result": "298 % of control"}, {"measurement": "T/C", "setting": "dose: 250.0 mg/kg/injection, schedule: Q01DX001 (ip), vehicle: carboxymethylcellulose (CMC)", "result": "357 % of control"}, {"measurement": "T/C", "setting": "dose: 375.0 mg/kg/injection, schedule: Q01DX001 (ip), vehicle: carboxymethylcellulose (CMC)", "result": "276 % of control"}, {"measurement": "T/C", "setting": "dose: 500.0 mg/kg/injection, schedule: Q01DX001 (ip), vehicle: carboxymethylcellulose (CMC)", "result": "271 % of control"}, {"measurement": "T/C", "setting": "dose: 750.0 mg/kg/injection, schedule: Q01DX001 (ip), vehicle: carboxymethylcellulose (CMC)", "result": "175 % of control"}, {"measurement": "T/C", "setting": "dose: 1000.0 mg/kg/injection, schedule: Q01DX001 (ip), vehicle: carboxymethylcellulose (CMC)", "result": "175 % of control"}]}]}
